Measured values taken from patent publication US8211911B2, “Compounds as kinase inhibitors” (priority 2008, dated 2012).
Like-named read-outs stand apart in the source and are kept apart here.

Experiments:
colon LOVO cell line = test: MTT assay against colon LOVO cell line; type: cell-based, human
NSCLC A549 cell line = test: MTT assay against human tumor NSCLC A549 cell line; type: cell-based

IC50 (colon LOVO cell line; Homo sapiens)	IC50 (NSCLC A549 cell line; Homo sapiens)	IC50 (colon LOVO cell line)	IC50 (NSCLC A549 cell line)	Compound
700 nM	200 nM			CNC(=O)c1c(C)oc2cc(Oc3ccnc4cc(OCCCN5CC(OC)C6(CC6)C5)c(OC)cc34)ccc12 (stereo not drawn) [Example 19, 6-(6-Methoxy-7-(3-(7-methoxy-5-azaspiro[2.4]heptan-5-yl)propoxy)quinolin-4-yloxy)-N,2-dimethyl-benzofuran-3-carboxamide]
1200 nM	800 nM			CNC(=O)c1cccc2cc(Oc3ccnc4cc(OCCN5CC(O)C6(CC6)C5)c(OC)cc34)ccc12 (stereo not drawn) [Example 23, 6-(7-(2-(7-Hydroxy-5-azaspiro[2.4]heptan-5-yl)ethoxy)-6-methoxyquinolin-4-yloxy)-N-methyl-1-naphthamide]
900 nM	300 nM			C=C1CN(CCOc2cc3nccc(Oc4ccc5c(C(=O)NC)cccc5c4)c3cc2OC)CC12CC2 [Example 25, 6-(6-Methoxy-7-(2-(7-methylene-5-azaspiro[2.4]heptan-5-yl)ethoxy)quinolin-4-yloxy)-N-methyl-1-naphthamide]
		1100 nM	800 nM	CNC(=O)c1cccc2cc(Oc3ccnc4cc(OCCN5CC6(CC6)C6(C5)OCCO6)c(OC)cc34)ccc12 [Example 21, 6-(6-Methoxy-7-[2-(5,8-Dioxa-10-azadispiro[2.0.4.3]undecane)ethoxy]quinolin-4-yloxy)-N-methyl-1-naphthamide]
900 nM	300 nM			C=C1CN(CCCOc2cc3nccc(Oc4ccc5c(C(=O)NC)c(C)oc5c4)c3cc2OC)CC12CC2 [Example 20, 6-(6-Methoxy-7-(3-(7-methylene-5-azaspiro[2.4]heptan-5-yl)propoxy)quinolin-4-yloxy)-N,2-dimethylbenzofuran-3-carboxamide]
1100 nM	700 nM			CNC(=O)c1cccc2cc(Oc3ccnc4cc(OCCN5CC(=O)C6(CC6)C5)c(OC)cc34)ccc12 [Example 22, 6-(6-Methoxy-7-(2-(7-oxo-5-azaspiro[2.4]heptan-5-yl)ethoxy)quinolin-4-yloxy)-N-methyl-1-naphthamide]
900 nM	400 nM			CNC(=O)c1cccc2cc(Oc3ccnc4cc(OCCCN5CC(=O)C6(CC6)C5)c(OC)cc34)ccc12 [Example 27, 6-(6-Methoxy-7-(3-(7-oxo-5-azaspiro[2.4]heptan-5-yl)propoxy)quinolin-4-yloxy)-N-methyl-1-naphthamide]
1500 nM	1000 nM			CNC(=O)c1cccc2cc(Oc3ccnc4cc(OCCCN5CC(O)C6(CC6)C5)c(OC)cc34)ccc12 (stereo not drawn) [Example 28, 6-(7-(3-(7-Hydroxy-5-azaspiro[2.4]heptan-5-yl)propoxy)-6-methoxyquinolin-4-yloxy)-N-methyl-1-naphthamide]
1500 nM	1000 nM			CNC(=O)c1cccc2cc(Oc3ccnc4cc(OCCN5CC(OC)C6(CC6)C5)c(OC)cc34)ccc12 (stereo not drawn) [Example 24, 6-(6-Methoxy-7-(2-(7-methoxy-5-azaspiro[2.4]heptan-5-yl)ethoxy)quinolin-4-yloxy)-N-methyl-1-naphthamide]
900 nM	300 nM			CNC(=O)c1cccc2cc(Oc3ccnc4cc(OCCCN5CC(OC)C6(CC6)C5)c(OC)cc34)ccc12 (stereo not drawn) [Example 29, 6-(6-Methoxy-7-(3-(7-methoxy-5-azaspiro[2.4]heptan-5-yl)propoxy)quinolin-4-yloxy)-N-methyl-1-naphthamide]
		1100 nM	800 nM	CNC(=O)c1cccc2cc(Oc3ccnc4cc(OCCCN5CC6(CC6)C6(C5)OCCO6)c(OC)cc34)ccc12 [Example 26, 6-(6-Methoxy-7-[3-(5,8-Dioxa-10-azadispiro[2.0.4.3]undecane)propoxy]quinolin-4-yloxy)-N-methyl-1-naphthamide]
1000 nM	900 nM			C=C1CN(CCCOc2cc3nccc(Oc4ccc5c(C(=O)NC)cccc5c4)c3cc2OC)CC12CC2 [Example 30, 6-(6-Methoxy-7-(3-(7-methylene-5-azaspiro[2.4]heptan-5-yl)propoxy)quinolin-4-yloxy)-N-methyl-1-naphthamide]

Second part, the molecule before the results:

Compound	IC50 (colon LOVO cell line; Homo sapiens)	IC50 (NSCLC A549 cell line; Homo sapiens)	IC50 (colon LOVO cell line)	IC50 (NSCLC A549 cell line)
CNC(=O)c1c(C)oc2cc(Oc3ccnc4cc(OCCCN5CC6(CC6)C6(C5)OCCO6)c(OC)cc34)ccc12 [Example 16, 6-(6-Methoxy-7-[3-(5,8-Dioxa-10-azadispiro[2.0.4.3]undecane)propoxy]quinolin-4-yloxy)-N,2-dimethylbenzofuran-3-carboxamide]			700 nM	200 nM
CNC(=O)c1c(C)oc2cc(Oc3ccnc4cc(OCCN5CC(OC)C6(CC6)C5)c(OC)cc34)ccc12 (stereo not drawn) [Example 14, 6-(6-Methoxy-7-(2-(7-methoxy-5-azaspiro[2.4]heptan-5-yl)ethoxy)quinolin-4-yloxy)-N,2-dimethylbenzofuran-3-carboxamide]	700 nM	200 nM		
COc1cc2c(Oc3ccc4[nH]c(C)cc4c3F)ccnc2cc1OCCCN1CC(OC)C2(CC2)C1 (stereo not drawn) [Example 9, 4-(4-Fluoro-2-methyl-1H-indol-5-yloxy)-6-methoxy-7-(3-(7-methoxy-5-azaspiro[2.4]heptan-5-yl)propoxy)quinoline]	400 nM	100 nM		
COc1cc2c(Oc3ccc4[nH]c(C)cc4c3F)ccnc2cc1OCCN1CC(OC)C2(CC2)C1 (stereo not drawn) [Example 4, 4-(4-Fluoro-2-methyl-1H-indol-5-yloxy)-6-methoxy-7-(2-(7-methoxy-5-azaspiro[2.4]heptan-5-yl)ethoxy)quinoline]	400 nM	80 nM		
C=C1CN(CCOc2cc3nccc(Oc4ccc5c(C(=O)NC)c(C)oc5c4)c3cc2OC)CC12CC2 [Example 15, 6-(6-Methoxy-7-(2-(7-methylene-5-azaspiro[2.4]heptan-5-yl)ethoxy)quinolin-4-yloxy)-N,2-dimethyl-benzofuran-3-carboxamide]	900 nM	300 nM		
COc1cc2c(Oc3ccc4[nH]c(C)cc4c3F)ccnc2cc1OCCN1CC(=O)C2(CC2)C1 [Example 2, 5-(2-(4-(4-Fluoro-2-methyl-1H-indol-5-yloxy)-6-methoxyquinolin-7-yloxy)ethyl)-5-azaspiro[2.4]-heptan-7-one]	300 nM	100 nM		
COc1cc2c(Oc3ccc4[nH]c(C)cc4c3F)ccnc2cc1OCCCN1CC2(CC2)C2(C1)OCCO2 [Example 6, 4-(4-fluoro-2-methyl-1H-indol-5-yloxy)-6-methoxy-7-[3-(5,8-Dioxa-10-azadispiro[2.0.4.3]-undecane)propoxy]quinoline]			400 nM	80 nM
COc1cc2c(Oc3ccc4[nH]c(C)cc4c3F)ccnc2cc1OCCCN1CC(=O)C2(CC2)C1 [Example 7, 5-(3-(4-(4-Fluoro-2-methyl-1H-indol-5-yloxy)-6-methoxyquinolin-7-yloxy)propyl)-5-azaspiro[2.4]-heptan-7-one]	200 nM	90 nM		
CNC(=O)c1c(C)oc2cc(Oc3ccnc4cc(OCCN5CC(O)C6(CC6)C5)c(OC)cc34)ccc12 (stereo not drawn) [Example 13, 6-(7-(2-(7-Hydroxy-5-azaspiro[2.4]heptan-5-yl)ethoxy)-6-methoxyquinolin-4-yloxy)-N,2-dimethylbenzofuran-3-carboxamide]	900 nM	200 nM		
COc1cc2c(Oc3ccc4[nH]c(C)cc4c3F)ccnc2cc1OCCCN1CC(O)C2(CC2)C1 (stereo not drawn) [Example 8, 5-(3-(4-(4-Fluoro-2-methyl-1H-indol-5-yloxy)-6-methoxyquinolin-7-yloxy)propyl)-5-azaspiro[2.4]-heptan-7-ol]	300 nM	100 nM		
CNC(=O)c1c(C)oc2cc(Oc3ccnc4cc(OCCN5CC(=O)C6(CC6)C5)c(OC)cc34)ccc12 [Example 12, 6-(6-Methoxy-7-(2-(7-oxo-5-azaspiro[2.4]heptan-5-yl)ethoxy)quinolin-4-yloxy)-N,2-dimethylbenzofuran-3-carboxamide]	900 nM	300 nM		
CNC(=O)c1c(C)oc2cc(Oc3ccnc4cc(OCCCN5CC(O)C6(CC6)C5)c(OC)cc34)ccc12 (stereo not drawn) [Example 18, 6-(7-(3-(7-Hydroxy-5-azaspiro[2.4]heptan-5-yl)propoxy)-6-methoxyquinolin-4-yloxy)-N,2-dimethyl-benzofuran-3-carboxamide]	800 nM	500 nM		
CNC(=O)c1c(C)oc2cc(Oc3ccnc4cc(OCCCN5CC(=O)C6(CC6)C5)c(OC)cc34)ccc12 [Example 17, 6-(6-Methoxy-7-(3-(7-oxo-5-azaspiro[2.4]heptan-5-yl)propoxy)quinolin-4-yloxy)-N,2-benzofuran-3-carboxamide]			900 nM	300 nM
C=C1CN(CCOc2cc3nccc(Oc4ccc5[nH]c(C)cc5c4F)c3cc2OC)CC12CC2 [Example 5, 4-(4-Fluoro-2-methyl-1H-indol-5-yloxy)-6-methoxy-7-(2-(7-methylene-5-azaspiro[2.4]heptan-5-yl)ethoxy)quinoline]	400 nM	100 nM		
COc1cc2c(Oc3ccc4[nH]c(C)cc4c3F)ccnc2cc1OCCN1CC2(CC2)C2(C1)OCCO2 [Example 1, 4-(4-Fluoro-2-methyl-1H-indol-5-yloxy)-6-methoxy-7-[2-(5,8-Dioxa-10-azadispiro[2.0.4.3]-undecane)ethoxy]quinoline]			200 nM	90 nM
CNC(=O)c1c(C)oc2cc(Oc3ccnc4cc(OCCN5CC6(CC6)C6(C5)OCCO6)c(OC)cc34)ccc12 [Example 11, 6-(6-Methoxy-7-[2-(5,8-Dioxa-10-azadispiro[2.0.4.3]undecane)ethoxy]quinolin-4-yloxy)-N,2-dimethylbenzofuran-3-carboxamide]			700 nM	200 nM
C=C1CN(CCCOc2cc3nccc(Oc4ccc5[nH]c(C)cc5c4F)c3cc2OC)CC12CC2 [Example 10, 4-(4-Fluoro-2-methyl-1H-indol-5-yloxy)-6-methoxy-7-(3-(7-methylene-5-azaspiro[2.4]heptan-5-yl)propoxy)quinoline]	400 nM	100 nM		
COc1cc2c(Oc3ccc4[nH]c(C)cc4c3F)ccnc2cc1OCCN1CC(O)C2(CC2)C1 (stereo not drawn) [Example 3, 5-(2-(4-(4-fluoro-2-methyl-1H-indol-5-yloxy)-6-methoxyquinolin-7-yloxy)ethyl)-5-azaspiro[2.4]-heptan-7-ol]	400 nM	100 nM		
